# According to the supplement of paper PMC10627819:
# Columns and labels:
# B. subtilis 168 [1] = assay: Bliss interaction score (quartile over a dose matrix) (fitness difference); higher = more antagonism (negative = synergy); conditions: main component drawn
# How it was run: (§1)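 The Bliss score was calculated by subtracting the expected fitness, the product of single-drug values, from the observed fitness. OD595 at entry into stationary phase, over the plate's robust no-drug mean and capped at 1, served as the fitness readout. Single-drug values were inferred from combination data, and scores are summarised by quartiles across technical, biological and donor/recipient replicates.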
# S. aureus DSM 20231 = assay: as above; conditions: main component drawn
# How it was run: as §1
# S. aureus Newman = assay: as above; conditions: main component drawn
# How it was run: as §1
# S. pneumoniae D39V [2] = assay: as above; conditions: main component drawn
# How it was run: as §1
# B. subtilis 168 [3] = assay: fitness (endpoint OD595 vs no drug) (fraction); higher = more growth; conditions: one replicate, main component drawn
# How it was run: (§2)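 At 37 °C, bacteria in TSB, LB Lennox or CY were grown in 384-well plates from a starting OD595 of 0.01. OD595 was measured every 30 min for 14 h, with the first reading used as background. Fitness is the optical density at the switch to stationary phase as a fraction of the robust mean of no-drug control wells, capped at 1.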
# S. pneumoniae D39V [4] = assay: as above; conditions: main component drawn
# How it was run: as §2
# 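Throughout, for Bliss interaction score (quartile over a dose matrix): first quartile when negative (synergy) and third quartile when positive (antagonism).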
smiles,measurement,setting,value
CO/N=C(\C(=O)N[C@@H]1C(=O)N2C(C(=O)O)=C(COC(C)=O)CS[C@H]12)c1csc(N)n1 [Cefotaxime] + CCC(C)C1C(=O)NC(=C)C(=O)NC(C(=O)NC(CSCC(C(=O)N1)NC(=O)/C(=C/C)/NC(=O)C(C(C)CC)N)C(=O)NC2C(SCC(NC(=O)CNC(=O)C3CCCN3C2=O)C(=O)NC(CCCCN)C(=O)NC4C(SCC(NC(=O)CNC(=O)C(NC(=O)C(NC(=O)C(NC(=O)CNC4=O)C)CC(C)C)CCSC)C(=O)NC(CC(=O)N)C(=O)NC(CCSC)C(=O)NC(CCCCN)C(=O)NC5C(SCC6C(=O)NC(C(=O)NC(CSC(C(C(=O)N6)NC(=O)C(NC5=O)C)C)C(=O)NC(CO)C(=O)NC(C(C)CC)C(=O)NC(CC7=CN=CN7)C(=O)NC(C(C)C)C(=O)NC(=C)C(=O)NC(CCCCN)C(=O)O)CC8=CN=CN8)C)C)C)CC(C)C [Nisin],Bliss interaction score,B. subtilis 168 [1],-0.0392
same,Bliss interaction score,S. aureus DSM 20231,-0.199
same,Bliss interaction score,S. aureus Newman,-0.0293
same,Bliss interaction score,S. pneumoniae D39V [2],-0.051
same,fitness,"B. subtilis 168 [3]; first compound 0.00775 µg/mL, partner 0.5 µg/mL",0.825
same,fitness,"B. subtilis 168 [3]; first compound 0.00775 µg/mL, partner 1 µg/mL",0.74
same,fitness,"B. subtilis 168 [3]; first compound 0.00775 µg/mL, partner 2 µg/mL",0.508
same,fitness,"B. subtilis 168 [3]; first compound 0.0155 µg/mL, partner 0.5 µg/mL",0.704
same,fitness,"B. subtilis 168 [3]; first compound 0.0155 µg/mL, partner 1 µg/mL",0.605
same,fitness,"B. subtilis 168 [3]; first compound 0.0155 µg/mL, partner 2 µg/mL",0.434
same,fitness,"B. subtilis 168 [3]; first compound 0.031 µg/mL, partner 0.5 µg/mL",0.513
same,fitness,"B. subtilis 168 [3]; first compound 0.031 µg/mL, partner 1 µg/mL",0.432
same,fitness,"B. subtilis 168 [3]; first compound 0.031 µg/mL, partner 2 µg/mL",0.251
same,fitness,"B. subtilis 168 [3]; first compound 0.0625 µg/mL, partner 1.25 µg/mL",0.397
same,fitness,"B. subtilis 168 [3]; first compound 0.0625 µg/mL, partner 1.6 µg/mL",0.18
same,fitness,"B. subtilis 168 [3]; first compound 0.0625 µg/mL, partner 2.5 µg/mL",0.0546
same,fitness,"B. subtilis 168 [3]; first compound 0.0625 µg/mL, partner 3.2 µg/mL",0.0399
same,fitness,"B. subtilis 168 [3]; first compound 0.0625 µg/mL, partner 5 µg/mL",0.0497
same,fitness,"B. subtilis 168 [3]; first compound 0.0625 µg/mL, partner 6.4 µg/mL",0.0827
same,fitness,"B. subtilis 168 [3]; first compound 0.125 µg/mL, partner 1.25 µg/mL",0.176
same,fitness,"B. subtilis 168 [3]; first compound 0.125 µg/mL, partner 1.6 µg/mL",0.0847
same,fitness,"B. subtilis 168 [3]; first compound 0.125 µg/mL, partner 2.5 µg/mL",0.0355
same,fitness,"B. subtilis 168 [3]; first compound 0.125 µg/mL, partner 3.2 µg/mL",0.0507
same,fitness,"B. subtilis 168 [3]; first compound 0.125 µg/mL, partner 5 µg/mL",0.0352
same,fitness,"B. subtilis 168 [3]; first compound 0.125 µg/mL, partner 6.4 µg/mL",0.0748
same,fitness,"B. subtilis 168 [3]; first compound 0.25 µg/mL, partner 1.25 µg/mL",0.109
same,fitness,"B. subtilis 168 [3]; first compound 0.25 µg/mL, partner 1.6 µg/mL",0.0456
same,fitness,"B. subtilis 168 [3]; first compound 0.25 µg/mL, partner 2.5 µg/mL",0.0476
same,fitness,"B. subtilis 168 [3]; first compound 0.25 µg/mL, partner 3.2 µg/mL",0.0432
same,fitness,"B. subtilis 168 [3]; first compound 0.25 µg/mL, partner 5 µg/mL",0.0316
same,fitness,"B. subtilis 168 [3]; first compound 0.25 µg/mL, partner 6.4 µg/mL",0.0433
same,fitness,"B. subtilis 168 [3]; first compound 0.5 µg/mL, partner 0.5 µg/mL",0.105
same,fitness,"B. subtilis 168 [3]; first compound 0.5 µg/mL, partner 1 µg/mL",0.0334
same,fitness,"B. subtilis 168 [3]; first compound 0.5 µg/mL, partner 2 µg/mL",0.0461
same,fitness,"B. subtilis 168 [3]; first compound 0.5 µg/mL, partner 4 µg/mL",0.0435
same,fitness,"B. subtilis 168 [3]; first compound 0.5 µg/mL, partner 8 µg/mL",0.0411
same,fitness,"B. subtilis 168 [3]; first compound 0.5 µg/mL, partner 16 µg/mL",0.025
same,fitness,"B. subtilis 168 [3]; first compound 1 µg/mL, partner 0.5 µg/mL",0.0988
same,fitness,"B. subtilis 168 [3]; first compound 1 µg/mL, partner 1 µg/mL",0.0354
same,fitness,"B. subtilis 168 [3]; first compound 1 µg/mL, partner 2 µg/mL",0.0395
same,fitness,"B. subtilis 168 [3]; first compound 1 µg/mL, partner 4 µg/mL",0.0388
same,fitness,"B. subtilis 168 [3]; first compound 1 µg/mL, partner 8 µg/mL",0.0243
same,fitness,"B. subtilis 168 [3]; first compound 1 µg/mL, partner 16 µg/mL",0.0126
same,fitness,"B. subtilis 168 [3]; first compound 2 µg/mL, partner 0.5 µg/mL",0.0708
same,fitness,"B. subtilis 168 [3]; first compound 2 µg/mL, partner 1 µg/mL",0.0361
same,fitness,"B. subtilis 168 [3]; first compound 2 µg/mL, partner 2 µg/mL",0.0552
same,fitness,"B. subtilis 168 [3]; first compound 2 µg/mL, partner 4 µg/mL",0.0578
same,fitness,"B. subtilis 168 [3]; first compound 2 µg/mL, partner 8 µg/mL",0.0592
same,fitness,"B. subtilis 168 [3]; first compound 2 µg/mL, partner 16 µg/mL",0.0351
same,fitness,"S. pneumoniae D39V [4]; first compound 0.0018 µg/mL, partner 0.4275 µg/mL",0.995
same,fitness,"S. pneumoniae D39V [4]; first compound 0.0018 µg/mL, partner 0.855 µg/mL",≥ 1
same,fitness,"S. pneumoniae D39V [4]; first compound 0.0018 µg/mL, partner 1.6 µg/mL",0.0249
same,fitness,"S. pneumoniae D39V [4]; first compound 0.0018 µg/mL, partner 1.71 µg/mL",0.0807
same,fitness,"S. pneumoniae D39V [4]; first compound 0.0018 µg/mL, partner 3.2 µg/mL",0.0291
same,fitness,"S. pneumoniae D39V [4]; first compound 0.0018 µg/mL, partner 6.4 µg/mL",0.0188
same,fitness,"S. pneumoniae D39V [4]; first compound 0.0035 µg/mL, partner 0.4275 µg/mL",0.896
same,fitness,"S. pneumoniae D39V [4]; first compound 0.0035 µg/mL, partner 0.855 µg/mL",0.936
same,fitness,"S. pneumoniae D39V [4]; first compound 0.0035 µg/mL, partner 1.6 µg/mL",0.0152
same,fitness,"S. pneumoniae D39V [4]; first compound 0.0035 µg/mL, partner 1.71 µg/mL",0.0712
same,fitness,"S. pneumoniae D39V [4]; first compound 0.0035 µg/mL, partner 3.2 µg/mL",0.0408
same,fitness,"S. pneumoniae D39V [4]; first compound 0.0035 µg/mL, partner 6.4 µg/mL",0.0145
same,fitness,"S. pneumoniae D39V [4]; first compound 0.007 µg/mL, partner 0.4275 µg/mL",0.835
same,fitness,"S. pneumoniae D39V [4]; first compound 0.007 µg/mL, partner 0.855 µg/mL",0.577
same,fitness,"S. pneumoniae D39V [4]; first compound 0.007 µg/mL, partner 1.6 µg/mL",0.0188
same,fitness,"S. pneumoniae D39V [4]; first compound 0.007 µg/mL, partner 1.71 µg/mL",0.0886
same,fitness,"S. pneumoniae D39V [4]; first compound 0.007 µg/mL, partner 3.2 µg/mL",0.0158
same,fitness,"S. pneumoniae D39V [4]; first compound 0.007 µg/mL, partner 6.4 µg/mL",0.0145
